Results reported in the supplement of paper PMC10307832.

Columns and labels:
Assay in all cases: relative viability (nuclei count vs DMSO), 5 days (fraction); higher = more cells survive
OSI-027 + Foretinib = compound: COc1cccc2cc(-c3nc([C@H]4CC[C@H](C(=O)O)CC4)n4ncnc(N)c34)[nH]c12 [OSI-027] + COc1cc2c(Oc3ccc(NC(=O)C4(C(=O)Nc5ccc(F)cc5)CC4)cc3F)ccnc2cc1OCCCN1CCOCC1 [Foretinib] (partner 0.25 µM)
Outline: (§1)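 Dosing by pin tool came one day after lung cancer cell lines were seeded in 1536-well plates, using either one drug or a fixed anchor-drug dose plus five library-drug doses (not always all listed) in √10 steps. After 5 days, nuclei were counted on 4× images. Relative viability is treated-well nuclei count divided by vehicle-well nuclei count, and values are medians of duplicate plates.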

OSI-027 + Pemetrexed = compound: COc1cccc2cc(-c3nc([C@H]4CC[C@H](C(=O)O)CC4)n4ncnc(N)c34)[nH]c12 [OSI-027] + Nc1nc2[nH]cc(CCc3ccc(C(=O)N[C@@H](CCC(=O)O)C(=O)O)cc3)c2c(=O)[nH]1 [Pemetrexed] (partner 0.2 µM)
Outline: as §1

Alpelisib + Lapatinib = compound: Cc1nc(NC(=O)N2CCC[C@H]2C(N)=O)sc1-c1ccnc(C(C)(C)C(F)(F)F)c1 [Alpelisib] + CS(=O)(=O)CCNCc1ccc(-c2ccc3ncnc(Nc4ccc(OCc5cccc(F)c5)c(Cl)c4)c3c2)o1 [Lapatinib] (partner 2 µM)
Outline: as §1

Alpelisib + Linsitinib = compound: Cc1nc(NC(=O)N2CCC[C@H]2C(N)=O)sc1-c1ccnc(C(C)(C)C(F)(F)F)c1 [Alpelisib] + C[C@]1(O)C[C@@H](c2nc(-c3ccc4ccc(-c5ccccc5)nc4c3)c3c(N)nccn32)C1 [Linsitinib] (partner 1 µM)
Outline: as §1

Cell Line	relative viability (OSI-027 + Foretinib; first compound 0.01 µM)	relative viability (OSI-027 + Foretinib; first compound 0.03162 µM)	relative viability (OSI-027 + Foretinib; first compound 0.1 µM)	relative viability (OSI-027 + Foretinib; first compound 0.3162 µM)	relative viability (OSI-027 + Foretinib; first compound 1 µM)	relative viability (OSI-027 + Pemetrexed; first compound 0.01 µM)	relative viability (OSI-027 + Pemetrexed; first compound 0.03162 µM)	relative viability (OSI-027 + Pemetrexed; first compound 0.1 µM)	relative viability (OSI-027 + Pemetrexed; first compound 0.3162 µM)	relative viability (OSI-027 + Pemetrexed; first compound 1 µM)	relative viability (Alpelisib + Lapatinib; first compound 0.04 µM)	relative viability (Alpelisib + Lapatinib; first compound 0.1265 µM)	relative viability (Alpelisib + Lapatinib; first compound 0.4 µM)	relative viability (Alpelisib + Lapatinib; first compound 1.265 µM)	relative viability (Alpelisib + Lapatinib; first compound 4 µM)	relative viability (Alpelisib + Linsitinib; first compound 0.04 µM)	relative viability (Alpelisib + Linsitinib; first compound 0.1265 µM)	relative viability (Alpelisib + Linsitinib; first compound 0.4 µM)	relative viability (Alpelisib + Linsitinib; first compound 1.265 µM)	relative viability (Alpelisib + Linsitinib; first compound 4 µM)
COR-L23	1.01	0.844	0.993	1.06	0.772	0.194	0.194	0.193	0.181	0.197	1.03	0.896	1.14	0.781	0.606	0.836	0.889	0.856	0.69	0.592
NCI-H2009	1.25	1.14	1.18	1.11	0.801	1.15	1.05	1.04	0.998	0.687	0.99	1	1.11	0.89	0.889	1.2	1.12	1.27	1.19	1.12
NCI-H1755	0.859	0.92	0.835	0.809	0.522	0.5	0.417	0.454	0.655	0.439	1.03	0.962	1.11	0.911	0.851	1.01	0.941	1.03	0.978	0.764
LCLC-97TM1	0.969	0.927	0.994	0.584	0.432	0.178	0.207	0.147	0.186	0.15	0.75	0.854	0.656	0.686	0.387	0.167	0.167	0.192	0.157	0.16
NCI-H2085	1.09	1.01	0.895	1.05	0.591	0.776	0.879	0.797	0.841	0.795	0.742	0.624	0.839	0.635	0.623	0.874	0.905	0.852	0.731	0.853
NCI-H647	1.39	1.14	1.28	1.01	0.575	0.159	0.173	0.187	0.157	0.211	0.959	1.14	1.35	0.99	0.756	1.01	1.29	1.13	1.12	1.12
BEN	0.475	0.617	0.371	0.3	0.258	0.78	0.754	0.472	0.586	0.46	0.715	0.618	0.88	0.688	0.708	0.859	0.857	1.14	0.828	0.959
NCI-H1944	0.835	0.918	0.884	0.73	0.394	0.657	0.691	0.77	0.59	0.519	0.815	1.04	0.763	0.621	0.451	0.985	1.2	1.17	0.858	0.543
